Laboratory results published in US20250367160A1, “USE OF GUAIJAVERIN IN PREPARATION OF EYE PROTECTION PRODUCT” (Innovation Center of Yangtze River Delta, ZJU, priority 2024, published 2025).

Legend:
[1] = test system: mouse retinal apoptotic cells; assay: Mouse retinal optical damage model, TUNEL staining of retinal apoptotic cells; type: in vivo, BALB/c mice; conditions: for retinal cell apoptosis caused by light (TUNEL): gavage once a day 10 days, vs model group, FIG. 6
Experimental: (§1) A self-made light box with a length of 108 cm, a width of 50 cm, and a height of 72 cm was used, and the light intensity was measured by a light meter to be 8,500-10,000 Lux. After eye examination, 60 mice with normal eyeballs were selected and randomly divided into a control group, a model group, a lutein group (100 mg/kg), a guaijaverin low-dose group (50 mg/kg), and a guaijaverin high-dose group (100 mg/kg), with 12 mice in each group. Lutein and guaijaverin were suspended in 5% sodium carboxymethylcellulose (CMC-Na) solution and administered by gavage once a day. The mice in the control and model groups were administered by gavage with an equal volume of 5% CMC-Na for 10 consecutive days. 10 days later, the mice in the model group, lutein group, guaijaverin low-dose group, and guaijaverin high-dose group were kept in the dark for 36 h, atropine eye gel was applied to both eyes of the mice to induce pupil dilation, and the mice were placed in the self-made lighting device of 8,000-10,000 Lux (the control group was raised in a normal environment) and given continuous light for 24 h. After the light exposure, the mice in each group had their eyeballs removed to draw blood and eyeball tissue collected for subsequent experimental tests.
Eyeball tissues of 6 mice were collected from each group for Hematoxylin-eosin staining (H&E) and TUNEL fluorescence staining of apoptotic cells, and the pathological changes of mouse eyeball tissues were observed using an optical microscope (completed by Wuhan Servicebio Biotechnology Co., Ltd.).
a) Dewaxing the paraffin sections to water: the sections were sequentially placed into environmental-friendly dewaxing solution I for 10 min, environmental-friendly dewaxing solution II for 10 min, environmental-friendly dewaxing solution III for 10 min, anhydrous ethanol I for 5 min, anhydrous ethanol II for 5 min, anhydrous ethanol III for 5 min and washed with distilled water.
b) Proteinase K repair: after the sections were slightly dried, a tissue pen was used to draw a circle around the tissue (to prevent the liquid from flowing away), a proteinase K working solution was added in the circle to cover the tissue, and incubated in a 37° C. incubator for 20 min. The slides were placed in PBS (PH=7.4) and washed 3 times on a decolorizing shaker, each time for 5 min. (Preparation method of proteinase K working solution, stock solution:PBS=1:9). […]
g) Sealing: the slides were placed in PBS (PH7.4) and washed on a decolorizing shaker for 3 times, 5 min each time. The sections were slightly spin-dried and mounted with anti-fluorescence fading mounting medium. […]

IL-6 = assay: Mouse retinal optical damage model, plasma IL-6 level; type: in vivo, BALB/c mice; conditions: gavage once a day 10 days, vs model group, FIG. 8
Experimental: as §1, with “After the light exposure, the mice in each group had their eyeballs removed to draw blood and eyeball tissue collected for subsequent experimental tests.” left out
The mouse blood was collected in an anticoagulant tube and centrifuged at 3,000 rpm for 10 min at 4° C. to collect the upper plasma. The IL-6 content was determined according to the method provided by the kit manufacturer.

[2] = test system: Heme Oxygenase-1 (HO-1 protein); assay: Mouse retinal optical damage model, Western blot of HO-1 protein in retina; type: in vivo, BALB/c mice; conditions: high-dose 100 mg/kg, gavage once a day 10 days, vs model group, FIG. 9
Experimental: A self-made light box with a length of 108 cm, a width of 50 cm, and a height of 72 cm was used, and the light intensity was measured by a light meter to be 8,500-10,000 Lux. After eye examination, 60 mice with normal eyeballs were selected and randomly divided into a control group, a model group, a lutein group (100 mg/kg), a guaijaverin low-dose group (50 mg/kg), and a guaijaverin high-dose group (100 mg/kg), with 12 mice in each group. Lutein and guaijaverin were suspended in 5% sodium carboxymethylcellulose (CMC-Na) solution and administered by gavage once a day. The mice in the control and model groups were administered by gavage with an equal volume of 5% CMC-Na for 10 consecutive days. […]
The mouse retina was taken, and 100-150 μL of RIPA lysis buffer was added for every 10 mg of tissue. After sufficient lysis, the protein content was detected using a BCA protein quantification kit. […] The bands were analyzed by the supporting software of the red laser two-color imaging system, with GAPDH protein expression as an internal reference.

[3] = test system: human primary retinal Müller cells; assay: Optical stress (strong white light) model of human primary retinal Müller cells, AlamarBlue cell viability; type: cell-based; conditions: pre-incubation 24 h, 32k Lux strong light 4 h
Experimental: The human primary Müller cells in a logarithmic growth phase were inoculated at a density of 5,000 cells/well in a 96-well plate and cultured in a 37° C., 5% CO2 incubator for 24 h. The medium was removed by aspirating, and 6 replicate wells were set up for guaijaverin groups. 100 μL of the guaijaverin solution dissolved in DMSO solvent in advance was further diluted in DMEM and added into each well, at final concentrations of 10 μM and 30 μM, respectively. The control group was added with 100 μL of DMEM solution. A laboratory-made strong light irradiation system was used to model optical stress on human retinal primary Müller cells cultured in vitro. A strong light irradiation group was irradiated with 32k Lux of strong light for 4 h, while a weak light irradiation group was irradiated with 5k Lux of weak light for 4 h. Then, the cell viability was detected using the AlamarBlue kit.
After the cells were stressed by light, the AlamarBlue kit was used to detect cell viability. The cell culture supernatant was discarded, and the cells were washed twice with 100 μL of PBS. 100 μL of AlamarBlue reagent diluted 1:10 with DMEM solution was added, and the cells were incubated in a 37° C., 5% CO2 incubator for 4 h. The fluorescence of each well was read using a microplate reader at an excitation wavelength of 544 nm and an emission wavelength of 590 nm. 2.

Compound: O=c1c(O[C@@H]2OC[C@H](O)[C@H](O)[C@H]2O)c(-c2ccc(O)c(O)c2)oc2cc(O)cc(O)c12 [Guaijaverin, guaijaverin]
- protective effect on retinal cell apoptosis compared with lutein (TUNEL) ([1]; high-dose 100 mg/kg vs lutein 100 mg/kg): better protective effect than lutein
- retinal cell apoptosis caused by light (TUNEL) ([1]; high-dose 100 mg/kg): effectively improve retinal cell apoptosis caused by light
- protective effect on retinal cell apoptosis compared with lutein (TUNEL) ([1]; low-dose 50 mg/kg vs lutein 100 mg/kg): comparable to that of the positive control lutein
- retinal cell apoptosis caused by light (TUNEL) ([1]; low-dose 50 mg/kg): effectively improve retinal cell apoptosis caused by light
- plasma level of IL-6 (IL-6; high-dose 100 mg/kg): significantly reduce the level of IL-6
- plasma level of IL-6 (IL-6; low-dose 50 mg/kg): significantly reduce the level of IL-6
- expression of HO-1 protein in the retinal tissue [2]: significantly reduced the expression of HO-1 protein
- viability of Müller cells after strong light irradiation ([3]; 10 μM, FIG. 1): significantly restored
- viability of Müller cells after strong light irradiation ([3]; 30 μM, FIG. 2): restored to the level under weak light irradiation conditions
